Among the data in PubChem BioAssay AID2060600 (Molecular Pharmacology Branch, DTP, NCI, 2025) are viability, T/C and IC50 values, retold here.

The assay has as its system 996289-038-R-J1-PDC complex spheroid viability. As to the kind of experiment: Anticancer human tumor 996289-038-R-J1-PDC patient-derived colon adenocarcinoma cell line growth inhibition [CLK]. The note with it: for viability, T/C: stronger effect = lower value. An excerpt:
A high-throughput screen of multi-cell type tumor spheroids was designed to identify active combinations of […] and targeted small molecules. Complex spheroids include a stromal component modeled by human endothelial cells (HUVEC) and fibroblasts modeled by human mesenchymal stem cells (MSCs). The concentration ranges selected for each drug and investigational agent were based upon clinically achievable concentrations if the clinical Cmax of the agent was known.
Compounds. The drugs and investigational agents: cirtuvivint (SM08502; NSC835563), CC-671 (NSC850746), vemurafenib (NSC761431), tapotoclax (NSC804041), sotorasib (NSC818433), adagrasib (NSC831453), MRTX-1133 (NSC836407), BAY2416964 (NSC825713), copanlisib (NSC816437), inavolisib (NSC800729), abemaciclib (NSC768073), osimertinib (NSC779217), entinostat (NSC756642), eltanexor (KPT-8602, NSC794443), venetoclax (NSC766270), ceralasertib (NSC777638), bortezomib (NSC756655), olaparib (NSC753686), talazoparib (NSC767125), alisertib (NSC759677), peposertib (NSC802822), gemcitabine (NSC613327), 5-fluorouracil (NSC19893), SN-38 (NSC673596), oxaliplatin (NSC266046), paclitaxel (NSC125973), and doxorubicin (NSC123127), were obtained from the National Cancer Institute (NCI) Developmental Therapeutics Program Chemical Repository. The FDA-approved anticancer drug set is available from the Developmental Therapeutics Program at https://dtp.cancer.gov/organization/dscb/obtaining/available plates.htm. […] The stock solutions were prepared in dimethyl sulfoxide (DMSO, Sigma-Aldrich, St. Louis, MO, cat. D2650), except for the platinum complexes which were prepared in saline (Quality Biological, Gaithersburg, MD, cat. 114-055-101), at 800-fold the tested concentration and stored at -70 degrees C prior to their use. All drugs and investigational agents were tested over a range starting from a high concentration at or near the clinical Cmax and decreasing in half-log increments. If the clinical Cmax for an agent had not been determined, the highest concentration tested was 10 microM.
Cell Culture. All cells were maintained in an incubator at 37 degrees C and 5% CO2 with 95% humidity. The PDC lines were cultured according to standard operating procedures established by the NCI PDMR. Briefly, all PDCs were thawed and cultured in Matrigel-coated flasks prepared with a working solution of 1X Ham's F-12 nutrient mix, without supplementation (Invitrogen, Waltham, MA, cat. 11765054), 100 U/mL penicillin-streptomycin (Invitrogen, cat. 15140122), and 2.5% Matrigel (Corning Inc., Corning, NY, cat. 354248) for the first three passages. The 947758-054-R-J2-PDC line was cultured in 6B/Colon 1A media, which includes advanced DMEM/F-12 (Thermo Fisher Scientific, cat. 12634028), 10 mM HEPES (Thermo Fisher Scientific, cat. 15630080), 1X GlutaMAX supplement (Thermo Fisher Scientific, cat. 35050061), 0.1 mg/mL primocin (InvivoGen, cat. ant-pm-2), 10% defined fetal bovine serum, heat inactivated (HyClone Laboratories Inc., cat. SH30070.03HI), 1.25 mM N-Acetyl-L-cysteine (Sigma-Aldrich, cat. A9165), 10 mM nicotinamide (Sigma-Aldrich, cat. N0636), 1X B-27 supplement (Thermo Fisher Scientific, cat. 17504044), 1X N-2 supplement (Thermo Fisher Scientific, cat. 17502048), and 10 microM Y-27632 dihydrochloride (Tocris Bioscience, cat. 1254). The 876862-298-R-J1-PDC was cultured in 6E media, which includes all 6B/Colon 1A media components plus 50% L-WRN conditioned media (ATCC, cat. CRL-3276), 50 ng/mL recombinant human EGF recombinant protein (hEGF; Thermo Fisher Scientific, cat. PHG0311), 10 ng/mL recombinant human fibroblast growth factor 10 (hGFG-10; PeproTech, cat. 100-26), 1 ng/mL recombinant human fibroblast growth factor 2 (hFGF-2; PeproTech, cat. 100-18B), and 1 µM prostaglandin E2 (PGE2; Tocris, cat. 2296). The 227483-062-R1-J1-PDC line was cultured in Panc media, containing all 6E components except hFGF-2, with the addition of 500 nM SB-431542 (Selleckchem, cat. S1067) and 10 nM gastrin (Tocris, cat. 3006). […]

“And” between values parts separate entries of the source, which are not always exact repeats. Identical values can stand only once.
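Further: spheroids exposed to the agents for 7 days before readout.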

As to `CC(Nc1ccc2c(c1)OCCn1cc(N3C(=O)OCC3C(F)F)nc1-2)C(N)=O` (centres undefined), the viability, T/C (as a rule, the result in the treated group divided by that in the control group, in per cent) (compound 0.0316 µM) is 97.5% and 100%; the viability, T/C (compound 0.1 µM) was 78.5% and 75.5%; the viability, T/C (compound 0.316 µM) is 72.1% and 74.9%; the viability, T/C (compound 1 µM) is 63.5% and 60.5%; the viability, T/C (compound 3.16 µM) is 54.1% and 53.5%; the viability, T/C (compound 10 µM) is 46.5% and 44.3%. Further, the IC50 (as a rule, the concentration that inhibits the measured activity by half) (curve of compound) was 6.04 µM and 4.5 µM.

For `CNC(=O)c1ccc(Nc2nc(OC3CCCC3)c3c(-c4ccc5nc(C)oc5c4)c[nH]c3n2)c(OC)c1`, the viability, T/C is, setting by setting: (compound 0.0316 µM) 120% [middle of 12 runs]; (compound 0.1 µM) 119% [middle of 12 runs]; (compound 0.316 µM) 78.9% [middle of 12 runs]; (compound 1 µM) 62.1% [middle of 12 runs]; (compound 3.16 µM) 61.1% [middle of 12 runs]; (compound 10 µM) 63.1% [middle of 12 runs]. Also, the IC50 (compound alone, run of 08/15/2023) was > 10 µM and 8.19 µM.
